Measured values as given in patent US20230059136A1, “THE COMPOUNDS AND COMPOSITIONS FOR TREATING CONDITIONS ASSOCIATED WITH NLRP ACTIVITY” (Novartis AG, priority 2018, published 2023).

System: IL-1β production in PMA-differentiated THP-1 cells
Assay: IL-1β production in PMA-differentiated THP-1 cells stimulated with gramicidin (hTHP-1 assay containing 2% fetal bovine serum)
Format: cell-based, human
Conditions: Homo sapiens, THP-1, Table B1; 2% fetal bovine serum; class symbols; read-out: hTHP-1 IC50 (Average IC50 of compounds in hTHP-1 assay)
Procedure, shortened: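 IL-1β release was read by HTRF on supernatants of 50,000 PMA-primed (20 ng/ml, 16-18 h) THP-1 cells/well in 2% FBS medium. Cells saw compound for 1 h (11-point titration from 100 μM, 0.37% DMSO) before a 2 h gramicidin (5 μM) challenge.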

IC50 [µM]	Structure (SMILES)
0.2 to 1	CC(C)c1ccc(F)c(C(C)C)c1CC(=O)N=[S@@](N)(=O)c1cc(C(C)(C)O)cs1 [compound 88, (R)-N-(amino(4-(2-hydroxypropan-2-yl)thiophen-2-yl)(oxo)-λ^6-sulfanylidene)-2-(3-fluoro-2,6-diisopropylphenyl)acetamide]
0.2 to 1	CC(C)c1nc(-c2cccc(C(F)(F)F)c2)c(F)c(C(C)C)c1CC(=O)N=[S@@](N)(=O)c1cnc(C(C)(C)O)s1 [compound 89, (R)-N-(amino(2-(2-hydroxypropan-2-yl)thiazol-5-yl)(oxo)-λ^6-sulfanylidene)-2-(5-fluoro-2,4-diisopropyl-6-(3-(trifluoromethyl)phenyl)pyridin-3-yl)acetamide]

Same assay, conditions: Homo sapiens, THP-1, Table B2; 2% fetal bovine serum; cells printed as numeric bound; read-out: hTHP-1 IC50 (Average IC50 of compounds in hTHP-1 assay)

IC50 [µM]	Structure (SMILES)
> 30	CC(C)c1cc(C#N)c(F)c(C(C)C)c1CC(=O)N=[S@@](=O)(NC#N)c1cnc([C@](C)(O)CO)s1 [Example 370, N-((R)-cyanamido(2-((R)-1,2-dihydroxypropan-2-yl)thiazol-5-yl)(oxo)-λ^6-sulfaneylidene)-2-(4-cyano-3-fluoro-2,6-diisopropylphenyl)acetamide]
> 30	COc1ccc(C(C)(C)O)cc1[S@](=O)(=NC(=O)Cc1c(C(C)C)cc(C#N)cc1C(C)C)NC#N [Example 377, (S)-N-(cyanamido(5-(2-hydroxypropan-2-yl)-2-methoxyphenyl)(oxo)-λ^6-sulfaneylidene)-2-(4-cyano-2,6-diisopropylphenyl)acetamide]
> 30	CC(C)c1cc2ccccc2c(C(C)C)c1CC(=O)N=[S@@](N)(=O)c1cnc(C(C)(C)O)s1 [Example 389, (R)-N-(amino(2-(2-hydroxypropan-2-yl)thiazol-5-yl) (oxo)-λ^6-sulfaneylidene)-2-(1,3-diisopropylnaphthalen-2-yl)acetamide]
> 30	CC(C)c1cc(C(F)F)cc(C(C)C)c1CC(=O)N=S(=O)(NC(=O)Cc1c(C(C)C)cc(C(F)F)cc1C(C)C)c1ccc(CN(C)C)nc1 (stereo not drawn) [Example 390, 2-(4-(Difluoromethyl)-2,6-diisopropylphenyl)-N-((2-(4-(difluoromethyl)-2,6-diisopropylphenyl)acetamido)(6-((dimethylamino)methyl)pyridin-3-yl)(oxo)-λ^6-sulfaneylidene)acetamide]
> 30	CC(C)c1cc2c(cnn2C)c(C(C)C)c1CC(=O)N=S(N)(=O)c1ncc(C(C)(C)O)s1 (stereo not drawn) [Example 391, N-(Amino(5-(2-hydroxypropan-2-yl)thiazol-2-yl)(oxo)-λ^6-sulfaneylidene)-2-(4,6-diisopropyl-1-methyl-1H-indazol-5-yl)acetamide]
> 30	CC(C)c1ncnc(C(C)C)c1CC(=O)N=S(N)(=O)c1cnc(C(C)(C)O)s1 (stereo not drawn) [Example 392, N-(amino(2-(2-hydroxypropan-2-yl)thiazol-5-yl)(oxo)-λ^6-sulfaneylidene)-2-(4,6-diisopropylpyrimidin-5-yl)acetamide]
> 30	CC(C)c1cc(C#N)c(F)c(C(C)C)c1CC(=O)N=S(=O)(NC(N)=O)c1cnc([C@](C)(O)CO)s1 (stereo partly drawn) [compound 355]

Same assay, conditions: Homo sapiens, THP-1, Table B2; 2% fetal bovine serum; class symbols; read-out: hTHP-1 IC50 (Average IC50 of compounds in hTHP-1 assay)

IC50 [µM]	Structure (SMILES)
5 to 30	CC(C)c1cc(C#N)cc(C(C)C)c1CC(=O)N=[S@](=O)(NC#N)c1sc(C(C)(C)O)nc1CCO [Example 373, (S)-N-(cyanamido(4-(2-hydroxyethyl)-2-(2-hydroxypropan-2-yl)thiazol-5-yl)(oxo)-λ^6-sulfaneylidene)-2-(4-cyano-2,6-diisopropylphenyl)acetamide]
0.04 to 0.2	CC(C)c1cc(C#N)cc(C(C)C)c1CC(=O)N=[S@@](=O)(NC#N)c1sc(C(C)(C)O)nc1CCO [Example 374, (R)-N-(cyanamido(4-(2-hydroxyethyl)-2-(2-hydroxypropan-2-yl)thiazol-5-yl)(oxo)-λ^6-sulfaneylidene)-2-(4-cyano-2,6-diisopropylphenyl)acetamide]
5 to 30	CC(C)c1cc(C#N)cc(C(C)C)c1CC(=O)N=[S@](=O)(NC#N)c1nc(CO)c(C(C)(C)O)s1 [Example 375, (S)-N-(cyanamido(4-(hydroxymethyl)-5-(2-hydroxypropan-2-yl)thiazol-2-yl)(oxo)-λ^6-sulfaneylidene)-2-(4-cyano-2,6-diisopropylphenyl)acetamide]
0.2 to 1	CC(C)c1cc(C#N)cc(C(C)C)c1CC(=O)N=[S@@](=O)(NC#N)c1nc(CO)c(C(C)(C)O)s1 [Example 376, (R)-N-(cyanamido(4-(hydroxymethyl)-5-(2-hydroxypropan-2-yl)thiazol-2-yl)(oxo)-λ^6-sulfaneylidene)-2-(4-cyano-2,6-diisopropylphenyl)acetamide]
5 to 30	COc1ccc(C(C)(C)O)cc1[S@@](=O)(=NC(=O)Cc1c(C(C)C)cc(C#N)cc1C(C)C)NC#N [Example 378, (R)-N-(cyanamido(5-(2-hydroxypropan-2-yl)-2-methoxyphenyl)(oxo)-λ^6-sylfaneylidene)-2-(4-cyano-2,6-diisopropylphenyl)acetamide]
1 to 5	CC(C)c1cc(C#N)c(F)c(C(C)C)c1CC(=O)N=S(N)(=O)c1cnc(C(O)CO)s1 (stereo not drawn) [compound 382]

The next lines start with the compound.

Structure (SMILES)	IC50 [µM]
CC(C)c1cc(C#N)c(F)c(C(C)C)c1CC(=O)N=S(=O)(NC#N)c1cnc(C(O)CO)s1 (stereo not drawn) [Example 372, N-(cyanamido(2-(1,2-dihydroxyethyl)thiazol-5-yl)(oxo)-λ^6-sulfaneylidene)-2-(4-cyano-3-fluoro-2,6-diisopropylphenyl)acetamide]	5 to 30
CNCc1ccc(S(N)(=O)=NC(=O)Cc2c(-c3ccccc3)ccc3c2CCC3)cc1 (stereo not drawn) [Example 379, N-(amino(4-((methylamino)methyl)phenyl)(oxo)-λ^6-sulfaneylidene)-2-(5-phenyl-2,3-dihydro-1H-inden-4-yl)acetamide]	5 to 30
CCn1cc(F)c(S(N)(=O)=NC(=O)Cc2c(C(C)C)cc3c(c2C(C)C)COC3)n1 (stereo not drawn) [Example 393, N-(amino(1-ethyl-4-fluoro-1H-pyrazol-3-yl)(oxo)-λ^6-sulfaneylidene)-2-(4,6-diisopropyl-1,3-dihydroisobenzofuran-5-yl)acetamide]	1 to 5
CCn1cc(F)c(S(N)(=O)=NC(=O)Cc2c(C(C)C)cc3c(c2C(C)C)OC(F)(F)O3)n1 (stereo not drawn) [Example 394, N-(amino(1-ethyl-4-fluoro-1H-pyrazol-3-yl)(oxo)-λ^6-sulfaneylidene)-2-(2,2-difluoro-4,6-diisopropylbenzo[d][1,3]dioxol-5-yl)acetamide]	0.2 to 1
CC(C)c1c2c(c3c(c1CC(=O)N=S(N)(=O)c1sc(C(C)(C)O)cc1F)CCC3)COC2 (stereo not drawn) [Example 395, N-(Amino(3-fluoro-5-(2-hydroxypropan-2-yl)thiophen-2-yl) (oxo)-λ^6-sulfaneylidene)-2-(4-isopropyl-3,6,7,8-tetrahydro-1H-indeno[4,5-c]furan-5-yl)acetamide]	0.2 to 1

Same assay, conditions: Homo sapiens, THP-1, read-out: hTHP-1 IC50 in 2% FBS, average IC50; hTHP-1 assay containing 2% fetal bovine serum

IC50 [µM]	Structure (SMILES)
5 to 30	Cc1cc(C(F)(F)F)cc(O)c1CC(=O)N=S(N)(=O)c1ccccc1 (stereo not drawn) [Example 404, N-(amino(oxo)(phenyl)-λ^6-sulfaneylidene)-2-(2-hydroxy-6-methyl-4-(trifluoromethyl)phenyl)acetamide]

Same assay, conditions: read-out: hTHP-1 IC50 in 2% FBS; average IC50; hTHP-1 assay containing 2% fetal bovine serum

IC50 [µM]	Structure (SMILES)
0.2 to 1	CC(C)c1cc2c(c(C(C)C)c1CC(=O)N=S(N)(=O)c1nn(CCO)cc1F)OC(F)(F)O2 (racemic) [Example 405, (R) and (S)—N-(amino(4-fluoro-1-(2-hydroxyethyl)-1H-pyrazol-3-yl)(oxo)-λ^6-sulfaneylidene)-2-(2,2-difluoro-4,6-diisopropylbenzo[d][1,3]dioxol-5-yl)acetamide]

System: IL-1β production in PMA-differentiated THP-1 cells
Assay: hTHP-1 assay containing 10% fetal bovine serum (IL-1β production, gramicidin-stimulated THP-1 cells)
Format: cell-based, human
Conditions: read-out: hTHP-1 IC50 in 10% FBS, average IC50
Procedure: Activity key: <0.008 μM=“++++++”; ≥0.008 and <0.04 μM=“+++++”; ≥0.04 and <0.2 μM=“++++”; ≥0.2 and <1 μM=“+++”; ≥1 and <5 μM=“++”; ≥5 and <30 μM=“+”. ND=not determined.

IC50 [µM]	Structure (SMILES)
0.04 to 0.2	CC(C)c1cc2c(c(C(C)C)c1CC(=O)N=S(N)(=O)c1nn(CCO)cc1F)OC(F)(F)O2 (racemic) [Example 405, (R) and (S)—N-(amino(4-fluoro-1-(2-hydroxyethyl)-1H-pyrazol-3-yl)(oxo)-λ^6-sulfaneylidene)-2-(2,2-difluoro-4,6-diisopropylbenzo[d][1,3]dioxol-5-yl)acetamide]
5 to 30	CNCc1ccc(S(N)(=O)=NC(=O)Cc2c(-c3ccccc3)cc(F)cc2C(C)C)cc1 (single isomer, unassigned) [Example 413, (S) or (R)-N-(amino(4-((methylamino)methyl)phenyl) (oxo)-λ^6-sulfaneylidene)-2-(5-fluoro-3-isopropyl-[1,1′-biphenyl]-2-yl)acetamide]
0.2 to 1	CNCc1ccc(S(N)(=O)=NC(=O)Cc2c(-c3ccccc3)cc(F)cc2C(C)C)cc1 (single isomer, unassigned) [Example 414, (R) or (S)-N-(amino(4-((methylamino)methyl)phenyl) (oxo)-λ^6-sulfaneylidene)-2-(5-fluoro-3-isopropyl-[1,1′-biphenyl]-2-yl)acetamide]
0.04 to 0.2	CC(C)c1cc2c(c(C(C)C)c1CC(=O)N=S(N)(=O)c1nn(C[C@@H](C)O)cc1F)OC(F)(F)O2 (single isomer, unassigned) [Example 415, (R) or (S)-N-(amino(4-fluoro-1-((R)-2-hydroxypropyl)-1H-pyrazol-3-yl)(oxo)-λ^6-sulfaneylidene)-2-(2,2-difluoro-4,6-diisopropylbenzo[d][1,3]dioxol-5-yl)acetamide]
5 to 30	CC(C)c1cc2c(c(C(C)C)c1CC(=O)N=S(N)(=O)c1nn(C[C@@H](C)O)cc1F)OC(F)(F)O2 (single isomer, unassigned) [Example 416, (S) or (R)-N-(amino(4-fluoro-1-((R)-2-hydroxypropyl)-1H-pyrazol-3-yl)(oxo)-λ^6-sulfaneylidene)-2-(2,2-difluoro-4,6-diisopropylbenzo[d][1,3]dioxol-5-yl)acetamide]
